How the values were obtained:
Assay type in all cases: in vitro ADME
[1] = system: UGT1A1; assay: Metabolism of PG based on UGTs, rat liver microsomes with inhibitor pazopanib; conditions: PG 10 μmol L−1, pazopanib 50 μmol L−1, p > 0.05
Method: (§1) The incubation mixtures consisted of 1 mg mL^−1 of rat liver microsomes, 1 mmol L^−1 of UDPGA and 10 μmol L^−1 of PG, tris-HCl (pH = 7.4) and inhibitor (pazopanib (50 μmol L^−1)), niflumic acid (10 μmol L^−1), and fluconazole (50 μmol L^−1). The incubation system was the same as that in “2.4.1.,” whereas polydatin (20 μg mL^−1) was selected as the IS. Detection and analysis conditions based on UPLC-QQQ-MS were the same as those in “2.4.2.” The MRM transitions, cone voltage, and collision voltage of the target compounds and IS are shown in Supplementary Table S1.

[2] = system: UGT1A9; assay: Metabolism of PG based on UGTs, rat liver microsomes with inhibitor niflumic acid; conditions: PG 10 μmol L−1, niflumic acid 10 μmol L−1, p < 0.0001
Method: as §1

[3] = Stability of PG in rat blank plasma (method validation); design: unit not given here; conditions: n = 6
Method: UPLC-MS/MS method validation was performed according to the FDA bioanalytical method validation guidance. The method was validated in terms of linearity, accuracy, precision, extraction recovery, matrix effect, and stability.
The result of specificity is shown in Supplementary Figure S12. The RTs of PG and polydatin were 1.47 and 1.70 min, respectively. Their chromatographic peaks were in good shape, and there was no interference from other endogenous substances. The regression equation of PG was y = 0.584781x − 0.47063, and the r ^2 and range of the linear were 0.9929 and 0.001–40 μg mL^−1, respectively. LLOQ was 0.5 ng mL^−1. The RSD of the intraday and interday precision was less than 15%, and the accuracy was between 80% and 120% (Supplementary Table S11). […] The stability of PG was less than 12.83% (Supplementary Table S13 ). It was shown that the established method complies with the relevant regulations of pharmacokinetics.

[4] = system: UGT2B7; assay: Metabolism of PG based on UGTs, rat liver microsomes with inhibitor fluconazole; conditions: PG 10 μmol L−1, fluconazole 50 μmol L−1, p > 0.05
Method: as §1

contribution of UGT1A1 to metabolism of PG [1]: contributed little or no participation
metabolism of PG by UGT1A9 [2]: mainly metabolized by UGT1A9
Stability, Measured con. ([3]; 4h, Con. 0.005 μg/mL): 111.33
Stability, Measured con. ([3]; 4h, Con. 5 μg/mL): 117.12
Stability, Measured con. ([3]; 4h, Con. 30 μg/mL): 98.21
Stability, Measured con. ([3]; 24h, Con. 0.005 μg/mL): 116.33
Stability, Measured con. ([3]; 24h, Con. 5 μg/mL): 115.03
Stability, Measured con. ([3]; 24h, Con. 30 μg/mL): 98.37
Stability, Measured con. ([3]; 15 days, Con. 0.005 μg/mL): 92.00
Stability, Measured con. ([3]; 15 days, Con. 5 μg/mL): 100.78
Stability, Measured con. ([3]; 15 days, Con. 30 μg/mL): 96.48
Stability, Measured con. ([3]; Freeze-thaws stability (3 times), Con. 0.005 μg/mL): 107.66
Stability, Measured con. ([3]; Freeze-thaws stability (3 times), Con. 5 μg/mL): 104.58
Stability, Measured con. ([3]; Freeze-thaws stability (3 times), Con. 30 μg/mL): 105.11
contribution of UGT2B7 to metabolism of PG [4]: contributed little or no participation
SMILES: OC[C@H]1O[C@@H](Oc2cc(/C=C/c3cc(O)cc(O)c3)ccc2O)[C@H](O)[C@@H](O)[C@@H]1O [PG, Piceatannol-3′-O-β-D-glucopyranoside]
